How the values were obtained:
[1] = Antagonist activity at mouse CpG-oligonucleotide in mouse WEHI-231 cells assessed as inhibition of CpG-oligonucleotide induced thymidine uptake preincubated for 16 hrs followed by 3H-thymidine addition and measured after 4 hrs in presence of anti-serum IgM by radioactivity analysis; type: cell-based; details: WEHI231
[2] = Antagonist activity at monkey TLR7 expressed in Drosophila S2 cells by ITC analysis; parameters: species or system Macaca mulatta
[3] = tested on: Splenocyte; test: Induction IFN production in C3H/HeJ mouse Splenocytes measured after 18 hrs; type: functional; details: read-out: MEC
[4] = Antagonist activity at mouse CpG-oligonucleotide in mouse WEHI-231 cells assessed as inhibition of CpG-oligonucleotide induced thymidine uptake in presence of anti-serum IgM; type: cell-based; details: WEHI231
[5] = target: T1, Toll-like receptor 8 (Homo sapiens, UniProt Q9NR97); test: Agonist activity at human TLR8 stably expressed in human HEK-Blue hTLR8 cells assessed as activation of NFkappaB by SAP reporter gene based spectrophotometric assay; type: cell-based
T1 sequence (Q9NR97 whole entry): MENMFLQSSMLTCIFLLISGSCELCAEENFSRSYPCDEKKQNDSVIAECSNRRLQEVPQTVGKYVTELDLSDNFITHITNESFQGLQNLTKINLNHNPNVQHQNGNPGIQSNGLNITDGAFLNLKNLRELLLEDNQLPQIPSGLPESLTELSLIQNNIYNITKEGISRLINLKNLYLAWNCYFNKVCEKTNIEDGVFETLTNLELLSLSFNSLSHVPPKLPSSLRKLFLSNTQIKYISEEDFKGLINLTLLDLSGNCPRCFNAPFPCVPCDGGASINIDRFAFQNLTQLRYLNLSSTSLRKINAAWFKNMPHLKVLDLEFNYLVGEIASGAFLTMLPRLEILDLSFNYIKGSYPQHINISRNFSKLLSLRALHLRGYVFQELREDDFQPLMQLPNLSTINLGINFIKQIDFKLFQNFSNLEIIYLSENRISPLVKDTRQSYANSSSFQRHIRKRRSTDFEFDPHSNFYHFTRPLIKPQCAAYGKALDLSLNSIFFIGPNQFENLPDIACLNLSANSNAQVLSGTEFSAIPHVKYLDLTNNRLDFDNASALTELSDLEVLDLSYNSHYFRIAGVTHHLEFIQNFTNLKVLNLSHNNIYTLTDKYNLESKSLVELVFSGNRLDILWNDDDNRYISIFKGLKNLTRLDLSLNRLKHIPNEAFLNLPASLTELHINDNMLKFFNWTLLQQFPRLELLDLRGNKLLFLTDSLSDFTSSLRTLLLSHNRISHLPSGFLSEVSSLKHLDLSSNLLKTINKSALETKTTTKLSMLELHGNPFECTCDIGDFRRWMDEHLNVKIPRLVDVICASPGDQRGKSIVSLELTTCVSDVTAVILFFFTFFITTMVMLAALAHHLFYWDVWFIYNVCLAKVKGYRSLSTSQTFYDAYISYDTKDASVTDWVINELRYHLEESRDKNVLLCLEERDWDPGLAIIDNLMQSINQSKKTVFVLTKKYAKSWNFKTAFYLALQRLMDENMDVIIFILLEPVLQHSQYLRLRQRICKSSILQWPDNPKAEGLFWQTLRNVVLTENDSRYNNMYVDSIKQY

[6] = target: T2, Toll-like receptor 7 (Homo sapiens, UniProt Q9NYK1); test: Agonist activity at human TLR7
T2 sequence (Q9NYK1 whole entry): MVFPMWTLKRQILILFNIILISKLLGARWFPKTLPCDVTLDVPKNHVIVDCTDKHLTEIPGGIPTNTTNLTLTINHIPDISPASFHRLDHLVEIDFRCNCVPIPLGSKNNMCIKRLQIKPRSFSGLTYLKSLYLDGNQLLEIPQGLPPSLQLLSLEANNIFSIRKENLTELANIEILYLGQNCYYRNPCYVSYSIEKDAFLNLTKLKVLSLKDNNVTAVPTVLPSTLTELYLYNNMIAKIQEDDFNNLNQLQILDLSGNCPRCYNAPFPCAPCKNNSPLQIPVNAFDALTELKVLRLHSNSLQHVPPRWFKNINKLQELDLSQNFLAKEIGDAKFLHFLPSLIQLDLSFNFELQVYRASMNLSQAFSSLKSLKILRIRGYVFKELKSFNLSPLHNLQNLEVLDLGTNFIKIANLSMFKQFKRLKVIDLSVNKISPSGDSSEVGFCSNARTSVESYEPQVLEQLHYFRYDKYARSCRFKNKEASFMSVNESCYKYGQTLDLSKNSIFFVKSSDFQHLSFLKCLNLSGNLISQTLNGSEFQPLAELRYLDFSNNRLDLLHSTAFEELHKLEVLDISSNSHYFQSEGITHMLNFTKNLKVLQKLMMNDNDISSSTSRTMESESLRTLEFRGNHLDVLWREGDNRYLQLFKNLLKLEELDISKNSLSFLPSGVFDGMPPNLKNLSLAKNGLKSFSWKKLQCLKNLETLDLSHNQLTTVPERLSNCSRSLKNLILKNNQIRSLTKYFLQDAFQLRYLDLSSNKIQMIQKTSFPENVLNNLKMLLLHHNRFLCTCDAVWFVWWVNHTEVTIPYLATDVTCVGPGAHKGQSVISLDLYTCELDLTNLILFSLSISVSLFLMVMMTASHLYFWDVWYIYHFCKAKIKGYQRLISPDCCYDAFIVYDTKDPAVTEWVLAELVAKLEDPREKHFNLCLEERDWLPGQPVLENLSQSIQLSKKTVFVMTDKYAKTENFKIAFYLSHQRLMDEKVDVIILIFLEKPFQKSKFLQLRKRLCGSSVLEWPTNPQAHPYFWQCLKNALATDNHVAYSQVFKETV

In the case of `CN1CCN(Cc2ccc(-c3cc(N4CCN(C)CC4)c4ccccc4n3)cc2)CC1`, the EC50 [1] is reported as 58 nM.
Work on `CCOc1nc(C)c2nc(-c3cncc(F)c3)n(Cc3ccc(CN4C[C@H]5C[C@@H]4CN5C)cc3)c2n1` yielded an IC50 [2] of 25 nM.
Work on `CCCCOc1nc(N)c2nc(S)n(Cc3ccccc3)c2n1` yielded a minimal effective concentration [3] of 0.001 µM.
Compound `CCOc1nc(N)c2nc(-c3cncc(F)c3)n(Cc3ccc(CN4C[C@H]5C[C@@H]4CN5C)cc3)c2n1` has an IC50 [2] of 25 nM.
`CN(C)CCNc1cc(-c2ccc3ccccc3c2)nc2ccccc12` gave an EC50 [4] of 9.1 nM.
`CN(C)CCNc1cc(-c2ccc(CN3CCN(C)CC3)cc2)nc2ccccc12` showed an EC50 [1] of 7.07 nM.
Work on `CN(C)CCNc1cc(-c2ccc(N3CCN(C)CC3)cc2)nc2ccccc12` yielded an EC50 [1] of 0.76 nM.
For `CCCCc1nc2c(N)nc3ccccc3c2s1`, the EC50 [5] was 410 nM.
For `CCCCCc1nc(N)c2[nH]c(=O)n(Cc3ccccc3)c2n1`, the minimal effective concentration [3] was 0.01 µM.
With `CC(C)Cn1cnc2c(N)nc3ccccc3c21` [IMIQUIMOD] the EC50 [6] was 2210 nM.
`CCN(CC)CCCC(C)Nc1ccnc2cc(Cl)ccc12` (centres undefined) [CHLOROQUINE] gave an EC50 [4] of 110 nM.
`CCCCOc1nc(N)c2[nH]c(=O)n(Cc3ccccc3)c2n1` gave a minimal effective concentration [3] of 0.001 µM.
`CCN(CC)CCCC(C)Nc1cc(-c2ccccc2)nc2ccccc12` (centres undefined) gave an EC50 [4] of 51.3 nM.
With `CN1CCN(Cc2cc(Nc3cc(-c4ccc5ccccc5c4)nc4ccccc34)cc(CN3CCN(C)CC3)c2O)CC1` the EC50 [4] was 0.24 nM.
